Laboratory results taken from PubChem BioAssay AID256 (DTP/NCI, 2004).
“And” between values parts separate entries of the source, which are not always exact repeats. Identical values can stand only once. Inconclusive results and toxic doses are left out. The calls were made as follows: active = survival T/C of 150% or more; inactive = T/C below 125% in these data. Residues, ends and D or L forms follow the SMILES beside them. *: point of attachment. Trt = c1ccc(C(c2ccccc2)(c2ccccc2)*)cc1

System: CD2F1 mice, L1210 leukemia ip, survival T/C
Test: NCI In Vivo Anticancer Drug Screen. Data for tumor model L1210 Leukemia (intraperitoneal) in CD2F1 (CDF1) mice
Details: higher = longer survival
Outline: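 Mice carrying a transplanted tumor received test compound or vehicle alone. The value is the measurement in the treated group divided by that in the vehicle-treated control group.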

[1] = endpoint: mean survival time, dose: 100.0 mg/kg/injection, schedule: Q01DX001 (ip), vehicle: saline with Tween-80
[2] = endpoint: mean survival time, dose: 200.0 mg/kg/injection, schedule: Q01DX001 (ip), vehicle: saline with Tween-80
[3] = endpoint: mean survival time, dose: 100.0 mg/kg/injection, schedule: Q01DX009 (ip), vehicle: saline with Tween-80
[4] = endpoint: mean survival time, dose: 200.0 mg/kg/injection, schedule: Q01DX009 (ip), vehicle: saline with Tween-80
[5] = endpoint: mean survival time, dose: 400.0 mg/kg/injection, schedule: Q01DX009 (ip), vehicle: saline with Tween-80
[6] = endpoint: mean survival time, dose: 100.0 mg/kg/injection, schedule: Q01DX001 (ip), vehicle: saline
[7] = endpoint: mean survival time, dose: 100.0 mg/kg/injection, schedule: Q04DX003 (ip), vehicle: saline
[8] = endpoint: mean survival time, dose: 200.0 mg/kg/injection, schedule: Q01DX001 (ip), vehicle: saline
[9] = endpoint: mean survival time, dose: 200.0 mg/kg/injection, schedule: Q04DX003 (ip), vehicle: saline
[10] = endpoint: mean survival time, dose: 100.0 mg/kg/injection, schedule: Q04DX002 (ip), vehicle: saline with Tween-80
[11] = endpoint: mean survival time, dose: 200.0 mg/kg/injection, schedule: Q04DX002 (ip), vehicle: saline with Tween-80
[12] = endpoint: mean survival time, dose: 400.0 mg/kg/injection, schedule: Q04DX002 (ip), vehicle: saline with Tween-80
[13] = endpoint: mean survival time, dose: 400.0 mg/kg/injection, schedule: Q01DX001 (ip), vehicle: saline

Measured: T/C

C/C1=C/C2=CC(C)C[C@@H]2C(=O)[C@]2(C)C(=O)CC(C)(C)[C@H]2CC1=O (stereo partly specified)
inactive: endpoint: mean survival time, dose: 0.13 mg/kg/injection, schedule: Q01DX009 (ip), vehicle: Klucel (hydroxypropylcellulose) (HPC) 98 % of control | endpoint: mean survival time, dose: 0.25 mg/kg/injection, schedule: Q01DX009 (ip), vehicle: Klucel (hydroxypropylcellulose) (HPC) 95 % of control | endpoint: mean survival time, dose: 0.5 mg/kg/injection, schedule: Q01DX009 (ip), vehicle: Klucel (hydroxypropylcellulose) (HPC) 93 % of control | endpoint: mean survival time, dose: 1.0 mg/kg/injection, schedule: Q01DX009 (ip), vehicle: Klucel (hydroxypropylcellulose) (HPC) 90 % of control

NC1=NCN(c2ccc(OCCOc3ccc(NC(=O)CBr)cc3)cc2)C(N)=N1
inactive: endpoint: mean survival time, dose: 37.5 mg/kg/injection, schedule: Q04DX002 (ip), vehicle: saline with Tween-80 96 % of control | endpoint: mean survival time, dose: 75.0 mg/kg/injection, schedule: Q04DX002 (ip), vehicle: saline with Tween-80 96 % of control | endpoint: mean survival time, dose: 150.0 mg/kg/injection, schedule: Q04DX002 (ip), vehicle: saline with Tween-80 90 % of control

Nc1nc(N)c(CCCCc2ccc(NC(=O)c3cccc(S(=O)(=O)F)c3)cc2)c(N)n1
inactive: endpoint: mean survival time, dose: 50.0 mg/kg/injection, schedule: Q01DX001 (ip), vehicle: saline with Tween-80 96 % of control | [1] 107 % of control | [2] 100 % of control

COC(=O)CCC(=O)N1C=Cc2ccccc2C1C#N (stereo unspecified)
inactive: [3] 98 % of control | endpoint: mean survival time, dose: 100.0 mg/kg/injection, schedule: Q04DX003 (ip), vehicle: saline with Tween-80 95 % of control | [4] 102 % of control | endpoint: mean survival time, dose: 200.0 mg/kg/injection, schedule: Q04DX003 (ip), vehicle: saline with Tween-80 95 % of control | [5] 102 % of control | endpoint: mean survival time, dose: 400.0 mg/kg/injection, schedule: Q04DX003 (ip), vehicle: saline with Tween-80 90 % of control

O=C(CCl)Cc1ccccc1
inactive: endpoint: mean survival time, dose: 50.0 mg/kg/injection, schedule: Q04DX003 (ip), vehicle: saline 98 % of control | [6] 104 % of control | [7] 92 % of control | [8] 103 % of control | [9] 101 % of control

O=C(COc1ccc(F)cc1)OCCO
inactive: [10] 105 % of control | [11] 101 % of control | [12] 105 % of control

CC(=O)OC1CCC2(C)C(=CCC3C2CCC2(C)C(C(=O)CC(O)(C(F)(F)F)C(F)(F)F)CCC32)C1 (stereo unspecified)
inactive: endpoint: mean survival time, dose: 12.5 mg/kg/injection, schedule: Q04DX002 (ip), vehicle: saline with Tween-80 98 % of control | endpoint: mean survival time, dose: 25.0 mg/kg/injection, schedule: Q04DX002 (ip), vehicle: saline with Tween-80 90 % of control | endpoint: mean survival time, dose: 50.0 mg/kg/injection, schedule: Q04DX002 (ip), vehicle: saline with Tween-80 94 % of control

CCOC(=O)N1Cc2cc3ccccc3nc2C1
inactive: endpoint: mean survival time, dose: 75.0 mg/kg/injection, schedule: Q01DX009 (ip), vehicle: saline with Tween-80 100 % of control | endpoint: mean survival time, dose: 150.0 mg/kg/injection, schedule: Q01DX009 (ip), vehicle: saline with Tween-80 101 % of control

CC(=O)NC1C(O)C(NC(C)=O)C(OC(C)=O)C(OC(C)=O)C1OC(C)=O (stereo unspecified)
inactive: [3] 95 % of control | [4] 103 % of control | [5] 103 % of control

CC12OC3(C)C4CC1C1(C)OC4(C)C3C(O)C21 (stereo unspecified)
inactive: [6] 97 % of control | [7] 105 % of control | [8] 97 % of control | [9] 102 % of control | [13] 100 % of control | endpoint: mean survival time, dose: 400.0 mg/kg/injection, schedule: Q04DX003 (ip), vehicle: saline 96 % of control

Cc1ccc(C)c(NC(=O)NC2CCCCC2)c1
inactive: [1] 98 % of control | [2] 101 % of control | endpoint: mean survival time, dose: 400.0 mg/kg/injection, schedule: Q01DX001 (ip), vehicle: saline with Tween-80 101 % of control

Cc1ccc2c([N+](=O)[O-])cccc2n1
inactive: endpoint: mean survival time, dose: 25.0 mg/kg/injection, schedule: Q01DX009 (ip), vehicle: saline with Tween-80 93 % of control | endpoint: mean survival time, dose: 50.0 mg/kg/injection, schedule: Q01DX009 (ip), vehicle: saline with Tween-80 96 % of control | [3] 104 % of control

COC(=O)C(CCl)NC(N)=O (stereo unspecified)
inactive: [6] 104 % of control | [8] 101 % of control | [13] 104 % of control

CN(C)c1ccc2c(Nc3ccc(NS(C)(=O)=O)cc3)c3ccc(N(C)C)cc3nc2c1
active: endpoint: median survival time, dose: 50.0 mg/kg/injection, schedule: Q01DX009 (ip), vehicle: Klucel (hydroxypropylcellulose) (HPC) 170 % of control | endpoint: median survival time, dose: 100.0 mg/kg/injection, schedule: Q01DX009 (ip), vehicle: Klucel (hydroxypropylcellulose) (HPC) 151 % of control and 193 % of control | endpoint: median survival time, dose: 200.0 mg/kg/injection, schedule: Q01DX009 (ip), vehicle: Klucel (hydroxypropylcellulose) (HPC) 164 % of control and 174 % of control

COC(=O)C(CC(C)C)NC(=O)C(N)CSC(c1ccccc1)(c1ccccc1)c1ccccc1 (stereo unspecified) (H-Cys(Trt)-Leu-OMe; configuration not given here)
inactive: endpoint: mean survival time, dose: 25.0 mg/kg/injection, schedule: Q01DX009 (ip), vehicle: saline 104 % of control | endpoint: mean survival time, dose: 50.0 mg/kg/injection, schedule: Q01DX009 (ip), vehicle: saline 110 % of control | endpoint: mean survival time, dose: 100.0 mg/kg/injection, schedule: Q01DX009 (ip), vehicle: saline 108 % of control

COc1cc(Cl)ccc1NC(=O)Nc1cccc(Cl)c1
inactive: [10] 88 % of control | [11] 95 % of control | [12] 95 % of control
